Measured values reported in patent publication US6846670B2, “Genetically engineered herpes virus for the treatment of cardiovascular disease” (priority 2000, dated 2005).

Experiments:
[1] = test system: umbilical artery smooth muscle cells (UASMCs); assay: MTT assay of UASMC viability following viral exposure and Acyclovir rescue; assay type: cell-based, human; conditions: UASMCs infected with R849 MOI=25, even with 10 μg/ml Acyclovir
Text: A modified colorimetric assay based on the selective ability of living cells to reduce the yellow salt MTT (3-[4,5-dimethylthiozol-2-yl]-2,5 diphenyl tetrazolium bromide; Sigma Chemical Co.) to formazan was used to quantitate HUVEC and UASMC viability following viral exposure and rescue with Acyclovir (Abbott Laboratories).

[2] = Serum Acyclovir level and serum chemistry during Acyclovir therapy; assay type: in vivo, rabbit
Text: (§1) Its mechanism of action is believed to include penetration intracellularly, conversion initially to the monophosphate by viral thymidine kinases, then to the diphosphate by cellular guanylate kinase and, finally, to the triphosphate by various other cellular enzymes. Fully active Acyclovir triphosphate competes with the natural substrate, deoxyguanosine triphosphate, for a position in the DNA chain of the herpes virus. Once incorporated, it terminates DNA synthesis via (1) competitive inhibition of viral DNA polymerase, (2) incorporation into, and termination of, the growing viral DNA chain, and (3) inactivation of the viral DNA polymerase. Uninfected cells show only minimal uptake and phosphorylation of Acyclovir. The HSV strains used in this example retain tk activity and are thus highly susceptible to neutralization by Acyclovir. To test whether an established HSV-1 infection could be eradicated after completion of the desired therapeutic effect (of the recombinant HSV) in vivo, a rabbit model was used. […] Baseline serum Acyclovir, electrolyte, blood urea nitrogen, and creatinine levels were measured before initiation of Acyclovir treatment, on days 2, 5, and 10 after initiation of treatment, and at sacrifice. […]

[3] = test system: established HSV-1 infection; assay: Eradication of established R849 infection with Acyclovir in rabbit vein patch; assay type: in vivo
Text: as §1

[4] = test system: human umbilical vein endothelial cells (HUVECs); assay: MTT assay of HUVEC viability following viral exposure; assay type: cell-based
Description: To determine the appropriate dose for vascular gene transfer, human umbilical vein endothelial cells (HUVECs) were contacted with graded concentrations of HSV-1 for 120 min and viability was assessed using a standard 72 hr MTT assay, as described below.
Human umbilical vein endothelial cells (HUVECs; BioWhittaker/Clonetics) were suspended in complete medium EBM-2 (BioWhittaker #CC3 156) and singlequots of EGM-2 (#CC4176) and grown to 100% confluence in P75 flasks in a 37° C. incubator with humidified 5% CO2 For the passage of cells, all reagent pack contents (HBSS, Trypsin/EDTA, TNS; BioWhittaker CC-5034) were thawed in a 37° C. water bath and exhausted media was removed and discarded. HUVECs were washed with enough HBSS to cover them, trypsin/EDTA was added, and flasks were gently agitated under an inverted microscope. […]
A modified colorimetric assay based on the selective ability of living cells to reduce the yellow salt MTT (3-[4,5-dimethylthiozol-2-yl]-2,5 diphenyl tetrazolium bromide; Sigma Chemical Co.) to formazan was used to quantitate HUVEC viability following viral exposure. […] The formazan crystals were then dissolved in 0.1 ml DMSO (Sigma) and the absorbance measured at 515 nm using a microplate spectrophotometer (SpectraMax 340 004) interfaced with a personal computer (Apple Macintosh). This process was repeated after 72 hours and relative cell survival was calculated. […]

## Nc1nc2c(ncn2COCCO)c(=O)[nH]1 [Acyclovir, 12-amino-1,9-dihydro-9-[(2-hydroxy-ethoxy)methyl]-6H-purin-6-one]
[1]
  rescue of infected cells with Acyclovir: could not be rescued
[2]; during Acyclovir therapy, rabbits
  serum levels of Acyclovir: 9 ± 4 µg/mL
[2]; throughout the study, rabbits with R849-infected patches on Acyclovir
  systemic toxicity by serum electrolytes, blood urea nitrogen and creatinine: no significant systemic toxicity
[3]; R849 4×10^8 pfu/ml vein patch, Acyclovir 75 mg/kg iv five days from week 1 plus oral, harvest at four weeks
  cells with β-galactosidase activity after Acyclovir treatment: < 1%
[3]; four weeks
  patency of treated vein patches after eradication of R849 infection: remained widely patent
[4]; HUVECs infected with R849 MOI=25, Acyclovir 0.25 μg/ml
  relative 72 hr cell survival with Acyclovir: 45±5%
[4]; HUVECs infected with R849 MOI=25, Acyclovir 0.5 μg/ml
  relative 72 hr cell survival with Acyclovir: 85±9%
